From patent US7453006B2, “Inositol derivatives for increasing chloride secretion and inhibiting inflammation” (Inologic, Inc., priority 2000, dated 2008)
Entries after “also recorded” stand apart in the source; their conditions may differ.

Key:
[1] = extracellular concentration of 200 uM; cited from earlier work
[2] = test system: CF Human Nasal Epithelial (CFHNE) cells; experiment: Cystic Fibrosis Human Nasal Epithelial Cell Assay (Isc, Ussing chambers); type: cell-based
Description: CF Human Nasal Epithelial (CFHNE) Cell Isolation and Proliferation
Nasal Polyps were surgically obtained from a CF patient at Children's Hospital (Seattle, Wash.), transported on ice in a sterile container containing a 1:1 mixture of Dulbecco's modification of minimum essential medium Eagle and Ham's F-12 nutrient medium (DMEM/F-12) (Irvine Scientific, Santa Ana, Calif.) supplemented with 100 U/mL penicillin, 0.1 mg/mL streptomycin, 10 mM HEPES, and 2 mM L-glutamine. The tissue samples were aseptically removed from the transport medium and washed (repeated 5 times) by suspending in 40 mL of Joklik's modification of minimum essential medium Eagle (JMEM) at 4° C., and centrifuging at 500 rpm. The supernatant was aspirated and discarded. The tissue was then transferred to JMEM containing 200 U/mL penicillin, 0.2 mg/mL streptomycin, 0.1 mg/mL gentamycin sulfate (Clonetics, San Diego, Calif.), and 0.1 μg/mL amphotericin-B (Clonetics), and 0.1% Protease, washed an additional two times, suspended in […] in a 10 cm tissue culture dish, and incubated at 4° C. for 24 hours. The tissue samples were then gently triturated, the connective tissue aseptically removed, and the remaining cell suspension centrifuged at 1000 rpm. The supernatant was aspirated and the pellet was resuspended in 10 mL proliferation media, consisting of Keratinocyte-Serum Free Medium (KSFM) (Gibco-BRL, Grand Island, N.Y.) containing 5 ng/ml EGF (Gibco), 50 μg/mL BPE (Gibco), 5 μg/mL insulin, 5 μg/mL transferrin, 5 μg/ml sodium selenite, 10 nM 3,3′,5-triiodo-L-thyronine, 200 nM hydrocortisone, 100 U/mL penicillin, 0.1 mg/mL streptomycin, and 2 mM L-glutamine. The cell suspension was transferred to 2.10 cm tissue culture dishes coated with 3 μg/cm^2 rat-tail collagen (Type I) (Becton-Dickinson, Bedford, Mass.), incubated at 37° C. in an humidified atmosphere of 5% CO2 and 95% air. The cells were allowed to grow for 6 days (˜70% confluence) with the media being replaced with fresh media every other day. The cells were then trypsinized using 0.025% trypsin-EDTA for 5 min. The cell suspension was collected, the trypsin deactivated with 10% Fetal Bovine Serum, and centrifuged at 1000 rpm for 5 min. The cells were then counted using an hemocytometer with a yield of 3×10^6 cells per dish. The supernatant was aspirated and the cells were resuspended in KSFM and plated at a density of 10^4 cells/cm^2.
CFHNE Cell Ussing Chamber Preparation
The CFHNE cells were prepared for Ussing Chamber studies using Snapwell permeable supports (0.4 μm pore size) (Corning Costar, Cambridge, Mass.) coated with 3 μg/cm^2 rat-tail collagen (type 1). Cells were plated at 9×10^3 cells/cm^2 in KSFM. After 2 days, an air-liquid interface (ALI) was initiated in DMEM/F-12 containing: 2% Fetal Clone III (Hyclone, Logan, Utah), 2.5 μg/mL insulin, 2.5 μg/mL transferrin, 2.5 μg/mL sodium selenite, 20 nM hydrocortisone, 1.5 μM epinephrine, 50 μg/mL BPE, 1 nM 3,3′,5-triiodo-L-thyronine, 3.3 nM All-trans retinoic acid, 250 nM ethanolamine, 250 nM O-phosporylethanolamine, 100 U/mL penicillin, 0.1 mg/ml streptomycin, and 2 mM L-glutamine. The CFHNE monolayers reached maximal resistance (˜200 Ω/cm^2) 5-7 days after initiation of ALI. All media/reagents, unless otherwise specified, were supplied by Sigma Chemical Co., St. Louis, Mo.

[3] = test system: arachidonic acid-induced inflammation in mouse ears; experiment: arachidonic acid-induced inflammation in mouse ears; type: in vivo; details: for Ear Thickness: 20 nanomoles/ear topical 30 min before arachidonic acid, measured 60 min after arachidonic acid, control 56.5 ± 1.57
Description: Arachidonic Acid (Nu-Chek, Elysian, Minn. 56028); Indomethacin (stock=12.5 mg/mL acetone). Prednisolone (Sigma Chem, P6004) 20 mM dissolved in acetone; Animals: Female Balb/c mice (B&K laboratories) and Swiss-Webster hybrid (B& K Laboratory, Kent, Wash.)
The right ear of each mouse was used for the test compound. Unless otherwise indicated each compound was adjusted to 20 mM by dilution into DMSO or DMSO/5% Pluronic F127 as indicated and 1 or 2 microliters were applied to the test ear. Thirty minutes after each compound was applied, 4 mg arachidonic acid was applied (4 μL/ear; 2 μL/side) to both ears of each mouse. Measurements of edema were taken 60 min after the application of arachidonic acid with microcalipers (Oditest, Scientific Supply and Equipment) unless otherwise indicated. The results are shown in FIG. 15 as millimeters×10^−2 measured at the thickest point of each ear. Control measurements were performed on ears that were only treated with arachidonic acid.
Response to prednisolone (20 μL of 20 mM/ear; 10 μl/side) added 3 hrs prior 20′ to arachidonic acid or indomethacin (5 μg/ear) added 30 min prior to test compounds was determined. The results are shown in Table A, where the anti-inflammatory/inflammatory effects of 20 nanomoles/ear of the indicated compounds were tested as described in Methods. Each plus represents a change from control (arachidonic acid alone) of 2.5 mm×10^−2. Effects were compared with those of Indomethacin (400 nmols/ear).
Acute inflammation: Membrane permeant inositol polyphosphate analogs were administered topically and tested for inhibition of inflammatory symptoms induced by arachidonic acid on the ear of Swiss Webster mice.

[4] = test system: T84 cells; experiment: Colonic Epithelial Cell Assay (Isc across T84 monolayers, Ussing chambers); type: cell-based, human; details: for Isc response to carbachol / Isc response to thapsigargin following carbachol: 400 μM, 30 min preincubation, T84
Description: Cl^− secretion in colonic epithelial cells was measured as short circuit current (Isc) across T84 monolayers grown to confluence on Snap-wells (Costar) and mounted in Ussing chambers equipped with voltage clamps (Physiologic Instruments, San Diego). Data was acquired and analyzed using AAcquire and Analyze@ software (Physiologic Instruments). T84 cells (passages 18-48) were maintained as described previously in McRoberts, J. A. et al., “Cyclic AMP and Ca^2+-activated K^+ transport pathway in the apical membrane of a human colonic epithelial cell line,” J. Biol. Chem. 260:14163-14172 (1985). After […] of incubation on Snap-wells, monolayers had formed tight junctions and were preincubated with […] Bt2D-myo-Ins(3,4,5,6)P4/AM for 30-min. prior to mounting. An extracellular concentration of 200 uM corresponds to an intracellular concentration of 4 uM (Vajanaphnich, et al., “Long-term uncoupling of chloride secretion from intracellular calcium levels by Ins(3,4,5,6)P4,” Nature 371:711-714 (1994)). […]

[5] = macroscopic negative effects / side effects after ip and iv injection; type: in vivo, mouse; details: several weeks after treatment
[6] = preincubation with 200 μM, CFHNE monolayers

CCCC(=O)OC1C(OC(=O)CCC)C(OP(=O)(OCOC(C)=O)OCOC(C)=O)C(OP(=O)(OCOC(C)=O)OCOC(C)=O)C(OP(=O)(OCOC(C)=O)OCOC(C)=O)C1OP(=O)(OCOC(C)=O)OCOC(C)=O (centres unmarked) [Bt2D-myo-Ins(3,4,5,6)P4/AM]
intracellular concentration [1]: 4 µM

CCCOC1C(OP(=O)(OCOC(C)=O)OCOC(C)=O)C(OP(=O)(OCOC(C)=O)OCOC(C)=O)C(OP(=O)(OCOC(C)=O)OCOC(C)=O)C(OP(=O)(OCOC(C)=O)OCOC(C)=O)C1(CCC)OC(=O)CCC (racemic) [Compound A, rac-2-O-butyryl-2-C-propyl-1-O-propyl-myo-inositol 3,4,5,6-tetrakisphosphate-octakis(acetoxymethyl) ester]
Isc response to subsequent stimulation with ATP ([2]; 95 μM, CFHNE): appeared to prolong the response to subsequent stimulation with ATP; also recorded: prolonged increase in Isc following ATP addition | Isc, direct effect ([2]; 95 μM, CFHNE): little direct effect | Isc, direct effect ([2]; 200 μM, added basolaterally, CFHNE (passage 3)): prolonged increase in Isc comparable in amplitude to that stimulated with ATP | Ear Thickness [3]: 52.5 ± 5.5 mm × 10^−2 | Isc response to carbachol [4]: did not affect | Isc response to thapsigargin following carbachol [4]: partially reversed the inhibition of thapsigargin induced chloride secretion; also recorded: partially restores the Isc response to thapsigargin following carbachol

D-1-O-octyl-2-O-butyryl-myo-inositol 1,4,5,6-tetrakisphosphate-octakis-(propionoxymethyl)ester [INO-E3]
effectiveness by route of application ([3]; topically, intraperitoneally and orally): effective when applied topically, intraperitoneally and orally | macroscopic negative effects ([5]; ip injections up to 50 μg/animal): No macroscopic negative effects | macroscopic negative effects ([5]; iv injections of 20 μg/animal): No macroscopic negative effects

CCCC12OC(C)(C)OC1C(OP(=O)(OCOC(C)=O)OCOC(C)=O)C(OP(=O)(OCOC(C)=O)OCOC(C)=O)C(OP(=O)(OCOC(C)=O)OCOC(C)=O)C2OP(=O)(OCOC(C)=O)OCOC(C)=O (racemic) [Compound B, rac-1,2-O-isopropylidene-2-C-propyl-myo-inositol 3,4,5,6-tetrakisphosphate-octakis(acetoxymethyl) ester]
negative component of the ATP effect on Isc ([2]; FIG. 11 legend: preincubation at 400 μM, CFHNE, average of duplicates): reverse the negative component of the ATP effect on Isc | negative phase of Isc following ATP [2, 6]: totally reversed the negative phase, instead causing a long term increase in Isc | transient increase in Isc following ATP [2, 6]: inhibited | Ear Thickness [3]: 56.1 ± 2.1 mm × 10^−2 | Isc response to carbachol [4]: prolongs; also recorded: prolonged increase in Isc response | Isc response to thapsigargin following carbachol [4]: overcomes the inhibitory effect of carbachol pretreatment; also recorded: prolonged increase in Isc response | Isc, acute effect ([4]; applied acutely to the apical surface of T84 monolayers, one monolayer): triggers an increase in Isc; also recorded: large and prolonged increase in Isc
